Test: Stability test: storage in stoppered vessels at 60° C. under a nitrogen atmosphere, content by HPLC
Format: physicochemical
Settings: for Stability (Residual rate): based on initial content (100%)
Procedure: In the stability test, crystals B, C and D of the present invention prepared in Examples 1, 2 and 4, respectively and the amorphous powder (Amorphous A) of compound of general formula (I) described in Example 1 (1d) of the Japanese Patent No. 2569251 were used as reference. These compounds were placed in stoppered vessels separately and stored at 60° C. under a nitrogen atmosphere for 17 days, and the content of these compounds was measured on 5, 10 and 17 days after the initiation of the storage.
The content of these compounds was determined quantitatively with high performance liquid chromatography (HPLC), and the rate of the remaining compounds (%) was calculated by the content of Compound (I) determined at each sampling point based on the initial content (100%) determined immediately before the storage.

[1] = 5 days after the initiation of storage
[2] = 10 days after the initiation of storage
[3] = 17 days after the initiation of storage

Row | Stability (Residual rate) [1] | Stability (Residual rate) [2] | Stability (Residual rate) [3] | Stability (Residual rate) (17 days after the initiation of storage, listed as crystal D) | Stability (Residual rate) (17 days after the initiation of storage, listed as crystal B) | Stability (Residual rate) (17 days after the initiation of storage, listed as crystal C) | stability (in words) | Stability (Residual rate) (17 days after the initiation of storage, listed as amorphous A) | Compound
1 | 99.9% | 98.3% | 98.4% | 98.4% | – | – | – | – | CCCCCCCCCCCCCCCC(=O)Nc1ccn([C@@H]2O[C@H](CO)[C@@H](O)[C@@H]2C#N)c(=O)n1 [Crystal D, 2′-cyano-2′-deoxy-N^4-palmitoyl-1-β-D-arabinofuranosylcytosine]
2 | 101.0% | 100.3% | 100.4% | – | 100% | – | – | – | CCCCCCCCCCCCCCCC(=O)Nc1ccn([C@@H]2O[C@H](CO)[C@@H](O)[C@@H]2C#N)c(=O)n1 [Crystal B, 2′-cyano-2′-deoxy-N^4-palmitoyl-1-β-D-arabinofuranosylcytosine]
3 | 101.0% | 100.4% | 100.1% | – | – | 100% | – | – | CCCCCCCCCCCCCCCC(=O)Nc1ccn([C@@H]2O[C@H](CO)[C@@H](O)[C@@H]2C#N)c(=O)n1 [Crystal C, 2′-cyano-2′-deoxy-N^4-palmitoyl-1-β-D-arabinofuranosylcytosine]
4 | 92.7% | 78.6% | 62.5% | – | – | – | extremely low | 62.5% | CCCCCCCCCCCCCCCC(=O)Nc1ccn([C@@H]2O[C@H](CO)[C@@H](O)[C@@H]2C#N)c(=O)n1 [Amorphous A, 2′-cyano-2′-deoxy-N^4-palmitoyl-1-β-D-arabinofuranosylcytosine, reference compound]

— patent US6908906B2, “Crystalline forms of pyrimidine nucleoside derivative” (Sankyo Company, Limited, priority 2001, dated 2005)
